# Results as given in patent US10751353B2, “Compositions and methods for treating an aggregation disease or disorder” (Seelos Therapeutics, Inc., priority 2013, dated 2020).
# “And” between values parts separate entries of the source, which are not always exact repeats. Equal values may be shown once. Read-outs that look alike come from different tables or passages of the source.
# Key:
# Rat = conditions: cited from earlier work
# Dog = conditions: cited from earlier work; for LD50: Dog
# mutant PABPN1 proteins = conditions: OPMD cell models; cited from earlier work
# [1] = rabbits; 500 mg intravenously; cited from earlier work
# [2] = cited from earlier work
# Mouse = conditions: cited from earlier work; for LD50: Mouse
# [3] = cited from earlier work; remark: listed apart in the source
# OPMD mouse model = conditions: cited from earlier work
# [4] = Preclinical PK study: plasma and muscle concentrations of trehalose after IV bolus and oral gavage; assay type: in vivo, male Sprague-Dawley (SD) rats
# Method: The plasma and muscle concentrations of trehalose in male Sprague-Dawley (SD) rats was determined after intravenous bolus (IV) and oral gavage (PO) administration.
# The study included 42 SD rats (male, 250 to 350 grams in weight, the Shanghai SLAC Laboratory Animal Co. Ltd.). Animals were administered with a volume of 5 ml/kg trehalose formulation (trehalose dihydrate in sterilized water at 200 mg/mL) to achieve a nominal dose of 1 gr/kg, intravenously or orally.
# Blood samples were collected after each dose administration and processed for plasma. Muscle samples (hind leg muscle) were collected and homogenized. The concentrations of trehalose in plasma and muscle homogenate samples were analyzed by qualified bioanalytical LC/MS/MS methods.
# Plasma concentration data of trehalose was subjected to a non compartmental pharmacokinetic analysis using WinNonlin software program (version 6.3, Pharsight, Mountain View, Calif.). Zero-time intercept concentration (C0), volume of distribution (Vdss), Clearance (Cl) peak plasma concentrations (Cmax) and the corresponding peak times (Tmax), terminal half-life (T½), mean residence time (MRT) from time zero to the last time point (MRT0-last), MRT from time zero to infinity (MRT0-inf), the area under the plasma concentration-time curve (AUC) from time zero to the last time point (AUC0-last) and AUC from time zero extrapolated to infinity (AUC0-inf) were calculated using the linear/log trapezoidal rule. Nominal sampling times were used to calculate all pharmacokinetic parameters since there was not any deviation larger than 5% between the actual and nominal sampling times.
# The values of muscle to plasma concentration and AUC ratio (M/P ratio) were both calculated.
# [5] = male, Sprague-Dawley, rat, in vivo, iv, 1000 mg/kg
# [6] = male, Sprague-Dawley, rat, in vivo, po, 1000 mg/kg
smiles,measurement,setting,value
OC[C@H]1O[C@H](O[C@H]2O[C@H](CO)[C@@H](O)[C@H](O)[C@H]2O)[C@H](O)[C@@H](O)[C@@H]1O [trehalose],LD50,"Rat; Rat, Intravenous",>1000 mg/kg bw
same,signs of toxicity and deaths,"Rat; rats, oral and intravenous administration",no deaths occurred
same,LD50,Dog; Intravenous,>1000 mg/kg bw
same,LD50,Dog; Oral,>5000 mg/kg bw
same,signs of toxicity and deaths,"Dog; dogs, oral and intravenous administration",no deaths occurred
same,aggregation and toxicity of mutant PABPN1 proteins,mutant PABPN1 proteins,effective in reducing
same,time to clearance from the plasma,[1],≤ 60 min
same,trehalose detected in the urine,[1],none was detected
same,safety in healthy volunteers,"[2]; oral doses 10 to 60 gr, apart from mild abdominal symptoms",no other safety issues were reported
same,oral amount that causes diarrhea and bloating,[2]; oral,40-50 gram per day
same,"oral amount that frequently causes diarrhea, bloating and discomfort","[2]; oral, humans",higher than 50 g a day
same,LD50,Mouse; Intravenous,>1000 mg/kg bw
same,LD50,Mouse; Oral,>5000 mg/kg bw
same,signs of toxicity and deaths,"Mouse; mice, oral and intravenous administration",no deaths occurred
same,share of ingested trehalose absorbed into the blood stream,[3]; oral ingestion,Less than 0.5%
same,share of trehalose not absorbed into the blood stream,[3]; oral,Over 99.5%
same,aggregate formation,OPMD mouse model,decreased aggregate formation
same,muscle weakness,OPMD mouse model,attenuation of muscle weakness
same,number of pathological skeletal muscle fibers,OPMD mouse model,reduced number of pathological skeletal muscle fibers
same,tolerability at the given dosage,"[4]; 1000 mg/kg IV or PO, male SD rats",well tolerated
same,bioavailability,"[4]; male, Sprague-Dawley, rat, in vivo, 1000 mg/kg",0.601%
same,AUC(0-inf),[4]; [5],781 µg·h/mL
same,CI (total clearance),[4]; [5],17.2 mL/min/kg
same,Cmax,[4]; [5],3730 ng/mL and 3730 ng/g
same,Vd,[4]; [5],0.685 L/kg
same,Vdss,[4]; [5],0.685 L/kg
same,clearance,[4]; [5],17.2 mL/min/kg
same,total clearance as share of rat liver blood flow (=55 mL/min/kg),[4]; [5],approximately 31.3%
same,AUC(0-t),"[4]; male, Sprague-Dawley, rat, in vivo, iv, 1000 mg/kg, AUC0-last",778 µg·h/mL
same,Kp,"[4]; male, Sprague-Dawley, rat, in vivo, iv, 1000 mg/kg, AUC ratio = Muscle AUC0-inf/Plasma AUC0-inf",0.234
same,Kp,"[4]; male, Sprague-Dawley, rat, in vivo, iv, 1000 mg/kg, mean ratios of muscle trehalose concentration to plasma concentration",2.88 to 3.76
same,AUC(0-t),"[4]; male, Sprague-Dawley, rat, in vivo, iv, 1000 mg/kg, muscle exposure AUC0-last (48 hr)",107 µg·h/mL
same,AUC0-inf/AUC0-last,[4]; [6],108%
same,AUC0-last,[4]; [6],4.52 µg·h/mL
same,AUC(0-inf),[4]; [6],4.87 µg·h/mL
same,Cmax,[4]; [6],4280 ng/mL
same,T1/2,[4]; [6],0.740 h
same,AUC(0-t),"[4]; male, Sprague-Dawley, rat, in vivo, po, 1000 mg/kg, AUC0-last",4.52 µg·h/mL
same,MRT inf,"[4]; male, Sprague-Dawley, rat, in vivo, po, 1000 mg/kg, MRT0-inf",1.26 h
same,MRT last,"[4]; male, Sprague-Dawley, rat, in vivo, po, 1000 mg/kg, MRT0-last",1.04 h
same,half-life,"[4]; male, Sprague-Dawley, rat, in vivo, po, 1000 mg/kg, T1/2",0.74 h
same,cellular uptake and retention after rapid intravenous administration,"[4]; rat, in vivo, iv",48 to 72 h
same,AUC0-last,"[4]; rat, in vivo, iv, 1000 mg/kg",107000 ng·h/g
same,AUC(0-inf),"[4]; rat, in vivo, iv, 1000 mg/kg",183000 ng·h/g
same,muscle samples of oral group,"[4]; rat, in vivo, po, 1000 mg/kg",below LLOQ
same,"plasma and muscle concentrations of trehalose, formulation administered orally","[4]; rat, in vivo, po, 1000 mg/kg",undetectable
